Here are results for four molecules from US20250059191A1, “CRYSTALLINE FORMS OF DIAZABICYCLOOCTANE DERIVATIVE AND PRODUCTION PROCESS THEREOF” (MEIJI SEIKA PHARMA CO., LTD., priority 2013, published 2025).

Holding throughout (format): physicochemical
Data set [1] can be described thus: Stability test of amorphous form and crystalline forms I-IV, 40° C./75% RH, airtight container. As for the experimental part:
Crystalline form III of Example 7a were dissolved in water and subjected to lyophilisation to afford (2S,5R)-N-(2-aminoethoxy)-7-oxo-6-(sulfooxy)-1,6-diazabicyclo[3.2.1]octane-2-carboxamide (VII-1) in an amorphous form. The compounds in an amorphous form and crystalline forms I-IV of Examples 5-8 were each weighed in a screw bottle, and stability tests were conducted at each of the temperatures and humidity conditions. The methods of measurement of related substances, content measurement, and water content measurement were as follows.
Samples were dissolved in water, and these solutions were used as sample solutions. The sample solutions each in the amount of 5 μL were tested under the following conditions by JP16, Liquid Chromatography <2.01>to obtain the amount of each related substance (%) and the total amount of related substances (%), and the content.
• Column: Waters Atlantis dc18, 5 μm, 4.6×250 mm • Column temperature: a constant temperature of about 35° C. • Injected amount: 5 μL • Detector: an ultraviolet absorption photometer (wavelength: 210 nm) • Mobile phase A: 1.32 g of diammonium hydrogenphosphate was dissolved in 900 mL of water, and phosphoric acid was added to adjust the pH to 3.0. To this was then added water to make 1000 mL. • Mobile phase B: Acetonitrile for liquid chromatography • Gradient program: The mixing ratio of mobile phase A to mobile phase B was controlled as the following time program.
About 20 mg of the product was precisely measured and tested by JP16, Water Determination <2.48>Coulometric titration.

Data set [2] is described as follows: Experiment on crystal transformation (powder X-ray diffraction after stirring suspension or storage). As for the experimental part: Crystal transformation in the polymorphism of the compound represented by Formula (VII-1) obtained in the present invention are not observed in a stability test carried out at 40° C. in the solid state or in stirring the suspension in a hydrous solvent for a long time. When crystalline form III of the compound represented by Formula (VII-1) was subjected to an XRD-DSC experiment, heated to 160° C. at 60% RH, and then allowed to cool on standing to 63° C., the crystalline form changed to anhydrous crystalline form over about 145° C., and then returned to the crystalline form III below about 90° C. after cooling. On the basis of these findings, a crystalline form of a compound represented by Formula (VII-1), particularly the crystalline form III constitutes a stable form under ordinary conditions.
A small amount of a suspension of the crystals of Example 6a was taken and stirred at room temperature for one day. The precipitated crystals were collected and subjected to powder X-ray crystal diffraction.
In the step of Example 7a, a small amount was taken out of the suspension immediately after the seeding and of the suspension after the dropwise addition of isopropanol, and each of the taken-out portions was stirred with a stirring bar at room temperature for one day and four days. The precipitated crystals were collected and subjected to powder X-ray crystals diffraction.
Crystalline form IV of Examples 8a-c was taken and isopropanol/water (6/1) was added thereto and suspended and stirred at 25° C. or 40° C. for one week. Samples were taken after 12 hours, 24 hours (one day), 48 hours (two days), 72 hours (three days), 96 hours (four days) and 168 hours (one week), and subjected to powder X-ray crystal diffraction after through-flow drying.

Data set [3] can be described thus: Solubility in aqueous isopropanol solution. The source says: Crystalline forms I, II and III are distinguished by DSC, solubility in aqueous isopropanol, and lattice spacing in powder X-ray diffraction patterns. […]

The structures appear in SMILES notation.

`NCCONC(=O)[C@@H]1CC[C@@H]2CN1C(=O)N2OS(=O)(=O)O` [Crystalline form IV, (2S,5R)-N-(2-aminoethoxy)-7-oxo-6-(sulfooxy)-1,6-diazabicyclo[3.2.1]octane-2-carboxamide]: the Content in data set [1] (1 month) is on record as 99.8%; in data set [1] (1 month, listed as Form IV), 99.8%; in data set [1] (at start), 99.9%; in data set [1] (at start, listed as Form IV), 99.9%. Also, the “Total amount of related substances” value in data set [1] (1 month) came out at 0.0%; in data set [1] (1 month, listed as Form IV) it was 0.0%; in data set [1] (at start), 0.0%; in data set [1] (at start, listed as Form IV) it was 0.0%. For the same molecule, the Water content in data set [1] (1 month) worked out at 0.1%; in data set [1] (1 month, listed as Form IV) it was 0.1%; in data set [1] (at start), 0.1%; in data set [1] (at start, listed as Form IV), 0.1%. Besides, the “Crystal transformation to a different crystal form” value in data set [2] (suspended in isopropanol/water (6/1), stirred at 25° C. or 40° C., 12 hours to one week) was “No crystal transformation to a different crystal form was observed”.
For the molecule `NCCONC(=O)[C@@H]1CC[C@@H]2CN1C(=O)N2OS(=O)(=O)O` [Crystalline form II, (2S,5R)-N-(2-aminoethoxy)-7-oxo-6-(sulfooxy)-1,6-diazabicyclo[3.2.1]octane-2-carboxamide], the Content in data set [1] (1 month) is on record as 99.8%; in data set [1] (1 month, listed as Form II), 99.8%; in data set [1] (3 months), 99.3%; in data set [1] (3 months, listed as Form II), 99.3%; in data set [1] (at start), 99.8%; in data set [1] (at start, listed as Form II) it was 99.8%. Also, the “Total amount of related substances” value in data set [1] (1 month) stood at 0.0%; in data set [1] (1 month, listed as Form II) it was 0.0%; in data set [1] (3 months) it was 0.5%; in data set [1] (3 months, listed as Form II), 0.5%; in data set [1] (at start), 0.1%; in data set [1] (at start, listed as Form II), 0.1%. The Water content in data set [1] (1 month) turned out to be 5.6%; in data set [1] (1 month, listed as Form II), 5.6%; in data set [1] (3 months) it was 5.9%; in data set [1] (3 months, listed as Form II), 5.9%; in data set [1] (at start), 5.7%; in data set [1] (at start, listed as Form II), 5.7%. The “Crystal transformation to a different crystal form” value in data set [2] (suspension of the crystals stirred at room temperature for one day, powder X-ray diffraction) is recorded as “No crystal transformation to a different crystal form was observed”. In addition, the figures for the “Solubility in an aqueous 60% isopropanol solution” value in data set [3] (10° C.) and in data set [3] (20° C.) were 0.67% and 0.74%, respectively.
Turning to `NCCONC(=O)[C@@H]1CC[C@@H]2CN1C(=O)N2OS(=O)(=O)O` [Crystalline form I, (2S,5R)-N-(2-aminoethoxy)-7-oxo-6-(sulfooxy)-1,6-diazabicyclo[3.2.1]octane-2-carboxamide], the Content in data set [1] (1 month) is 99.9%; in data set [1] (1 month, listed as Form I), 99.9%; in data set [1] (3 months) it was 99.8%; in data set [1] (3 months, listed as Form I), 99.8%; in data set [1] (at start), 99.9%; in data set [1] (at start, listed as Form I), 99.9%. Further, the “Total amount of related substances” value in data set [1] (1 month) is given as 0.0%; in data set [1] (1 month, listed as Form I) it was 0.0%; in data set [1] (3 months), 0.1%; in data set [1] (3 months, listed as Form I), 0.1%; in data set [1] (at start), 0.1%; in data set [1] (at start, listed as Form I), 0.1%. For the same molecule, the Water content is on record as 5.4% in data set [1] (1 month); 5.4% in data set [1] (1 month, listed as Form I); 5.6% in data set [1] (3 months); 5.6% in data set [1] (3 months, listed as Form I); 5.4% in data set [1] (at start); 5.4% in data set [1] (at start, listed as Form I). Further, the “Solubility in aqueous isopropanol, comparison of crystalline forms I, II and III” value in data set [3] is reported as “lowest solubility”. Besides, the “Solubility in an aqueous 60% isopropanol solution” value in data set [3] (10° C.) is 0.44%; in data set [3] (20° C.), 0.48%.
Consider `NCCONC(=O)[C@@H]1CC[C@@H]2CN1C(=O)N2OS(=O)(=O)O` [Amorphous form, (2S,5R)-N-(2-aminoethoxy)-7-oxo-6-(sulfooxy)-1,6-diazabicyclo[3.2.1]octane-2-carboxamide], for which, in data set [1] (1 month), the Content came to 93.3%, the “Total amount of related substances” value was 6.6% and the Water content was found to be 3.3%. Moreover, in data set [1] (3 months), the Content was determined as 87.5%, the “Total amount of related substances” value was determined as 12.3% and the Water content is 3.8%. In data set [1] (at start), the Content was determined as 99.4%, the “Total amount of related substances” value came out at 0.5% and the Water content is 1.3%.
